Experiments:
Assay type in all cases: cell-based
Conditions in all cases: read-out: Activity
[1] = Cytotoxicity against human HepG2 cells assessed as cell viability at 1 uM after 24 hrs by Cell-Titer Glo assay
[2] = Cytotoxicity against human HepG2 cells assessed as cell viability at 1 uM after 4 hrs by Cell-Titer Glo assay
[3] = Cytotoxicity against human HepG2 cells assessed as cell viability at 10 uM after 4 hrs by Cell-Titer Glo assay
[4] = Cytotoxicity against human HepG2 cells assessed as cell viability at 10 uM after 24 hrs by Cell-Titer Glo assay
[5] = Cytotoxicity against human HepG2 cells assessed as cell viability at 100 uM after 4 hrs by Cell-Titer Glo assay
[6] = Cytotoxicity against human HepG2 cells assessed as cell viability at 100 uM after 24 hrs by Cell-Titer Glo assay

COc1cc(-c2cnn3cc(-c4ccc(N5CCNCC5)cc4)cnc23)cc(OC)c1OC
> 75%: viability at 24 h, 1 µM [1] | viability at 4 h, 1 µM [2] | viability at 4 h, 10 µM [3]

Cc1nc(Nc2ncc(C(=O)Nc3c(C)cccc3Cl)s2)cc(N2CCN(CCO)CC2)n1 [DASATINIB]
> 75%: viability at 24 h, 1 µM [1] | viability at 4 h, 1 µM [2] | viability at 4 h, 10 µM [3]

COc1cc(-c2cc(-c3ccc(N4CCNCC4)cc3)cnc2Cl)cc(OC)c1OC
> 75%: viability at 24 h, 1 µM [1] | viability at 24 h, 10 µM [4] | viability at 4 h, 100 µM [5] | viability at 4 h, 1 µM [2] | viability at 4 h, 10 µM [3]

COc1cc(-c2cc(-c3ccc(N4CCNCC4)cc3)cnc2N(C)C)cc(OC)c1OC
> 75%: viability at 24 h, 1 µM [1] | viability at 24 h, 10 µM [4] | viability at 4 h, 100 µM [5] | viability at 4 h, 1 µM [2] | viability at 4 h, 10 µM [3]

CCN(CC)CCNC(=O)c1c(C)[nH]c(/C=C2\C(=O)Nc3ccc(F)cc32)c1C [SUNITINIB]
> 75%: viability at 24 h, 1 µM [1] | viability at 4 h, 1 µM [2] | viability at 4 h, 10 µM [3]

COc1cccc(-c2cc(-c3ccc(N4CCNCC4)cc3)cnc2N)c1
> 75%: viability at 24 h, 1 µM [1] | viability at 24 h, 10 µM [4] | viability at 4 h, 100 µM [5] | viability at 4 h, 1 µM [2] | viability at 4 h, 10 µM [3]

Cc1cn(-c2cc(NC(=O)c3ccc(C)c(Nc4nccc(-c5cccnc5)n4)c3)cc(C(F)(F)F)c2)cn1 [NILOTINIB]
> 75%: viability at 24 h, 1 µM [1] | viability at 24 h, 10 µM [4] | viability at 4 h, 100 µM [5] | viability at 24 h, 100 µM [6] | viability at 4 h, 1 µM [2] | viability at 4 h, 10 µM [3]

COc1cc(-c2cnc(N)c(-c3cc(OC)c(OC)c(OC)c3)c2)ccc1O
> 75%: viability at 24 h, 1 µM [1] | viability at 24 h, 10 µM [4] | viability at 4 h, 100 µM [5] | viability at 24 h, 100 µM [6] | viability at 4 h, 1 µM [2] | viability at 4 h, 10 µM [3]

Nc1ncc(-c2ccc(N3CCNCC3)cc2)cc1-c1cccc2ncccc12
> 75%: viability at 24 h, 1 µM [1] | viability at 24 h, 10 µM [4] | viability at 4 h, 100 µM [5] | viability at 4 h, 1 µM [2] | viability at 4 h, 10 µM [3]

CC(C)Oc1cccc(-c2cc(-c3ccc(N4CCNCC4)cc3)cnc2N)c1
> 75%: viability at 24 h, 1 µM [1] | viability at 24 h, 10 µM [4] | viability at 4 h, 1 µM [2] | viability at 4 h, 10 µM [3]

C[C@@H](Oc1cc(-c2cnn(C3CCNCC3)c2)cnc1N)c1c(Cl)ccc(F)c1Cl [CRIZOTINIB]
> 75%: viability at 24 h, 1 µM [1] | viability at 24 h, 10 µM [4] | viability at 4 h, 1 µM [2] | viability at 4 h, 10 µM [3]

Cc1ccc(Nc2nccc(N(C)c3ccc4c(C)n(C)nc4c3)n2)cc1S(N)(=O)=O [PAZOPANIB]
> 75%: viability at 24 h, 1 µM [1] | viability at 24 h, 10 µM [4] | viability at 4 h, 100 µM [5] | viability at 24 h, 100 µM [6] | viability at 4 h, 1 µM [2] | viability at 4 h, 10 µM [3]

CS(=O)(=O)CCNCc1ccc(-c2ccc3ncnc(Nc4ccc(OCc5cccc(F)c5)c(Cl)c4)c3c2)o1 [LAPATINIB]
> 75%: viability at 24 h, 1 µM [1] | viability at 24 h, 10 µM [4] | viability at 4 h, 100 µM [5] | viability at 24 h, 100 µM [6] | viability at 4 h, 1 µM [2] | viability at 4 h, 10 µM [3]

Nc1ncc(-c2ccc(N3CCNCC3)cc2)cc1-c1ccnc2ccccc12
> 75%: viability at 24 h, 1 µM [1] | viability at 24 h, 10 µM [4] | viability at 4 h, 100 µM [5] | viability at 4 h, 1 µM [2] | viability at 4 h, 10 µM [3]

Nc1ncc(-c2cccc(N3CCNCC3)c2)cc1-c1ccnc2ccccc12
> 75%: viability at 24 h, 1 µM [1] | viability at 24 h, 10 µM [4] | viability at 4 h, 1 µM [2] | viability at 4 h, 10 µM [3]

CNC(=O)c1cc(Oc2ccc(NC(=O)Nc3ccc(Cl)c(C(F)(F)F)c3)cc2)ccn1 [SORAFENIB]
> 75%: viability at 24 h, 1 µM [1] | viability at 24 h, 10 µM [4] | viability at 4 h, 100 µM [5] | viability at 4 h, 1 µM [2] | viability at 4 h, 10 µM [3]

COc1cc(-c2cc(-c3ccc(N4CCNCC4)cc3)cnc2N)ccc1C
> 75%: viability at 24 h, 1 µM [1] | viability at 24 h, 10 µM [4] | viability at 4 h, 1 µM [2] | viability at 4 h, 10 µM [3]
